Measured values reported in patent publication US12012409B2, “Bicyclic heterocycles as FGFR inhibitors” (Incyte Corporation, priority 2020, dated 2024).

Experiments:
Format in all cases: biochemical
Settings in all cases: wild-type un-phosphorylated protein; pre-incubated for 4 hours; ATP near or below Km
[1] = molecular target: wild-type un-phosphorylated FGFR3 (Homo sapiens, UniProt P22607); assay: FGFR Enzymatic Assay (FRET peptide phosphorylation), FGFR3
Description: (§1) The inhibitor potency of the exemplified compounds was determined in an enzyme discontinuous assay that measures peptide phosphorylation using FRET measurements to detect product formation. Inhibitors were serially diluted in DMSO and a volume of 0.2 μL was transferred to the wells of a 384-well plate. […] Appropriate controls (enzyme blank and enzyme with no inhibitor) were included on the plate. […] The ATP Km values were pre-determined in a separate series of experiments. […] The plate was allowed to equilibrate for ˜10 minutes at ambient temperature before scanning on a PheraStar plate reader (BMG Labtech) instrument.
(§2) Either GraphPad prism or XLfit was used to analyze the data. The IC50 values were derived by fitting the data to a four parameter logistic equation producing a sigmoidal dose-response curve with a variable Hill coefficient. Prism equation: Y=Bottom+(Top−Bottom)/(1+10^((LogIC50−X)*Hill slope)); XLfit equation: Y=(A+((B−A)/(1+((X/C)^D)))) where X is the logarithm of inhibitor concentration and Y is the response.

[2] = molecular target: wild-type un-phosphorylated FGFR1 (Homo sapiens, UniProt P11362); assay: FGFR Enzymatic Assay (FRET peptide phosphorylation), FGFR1
Description: as §1, §2

[3] = molecular target: wild-type un-phosphorylated FGFR2 (Homo sapiens, UniProt P21802); assay: FGFR Enzymatic Assay (FRET peptide phosphorylation), FGFR2
Description: as §1, §2
The data in Table 1 was measured in wild-type un-phosphorylated FGFR1, FGFR2, FGFR3 and FGFR4 protein.

Chain of wild-type un-phosphorylated FGFR1 (P11362 22-822): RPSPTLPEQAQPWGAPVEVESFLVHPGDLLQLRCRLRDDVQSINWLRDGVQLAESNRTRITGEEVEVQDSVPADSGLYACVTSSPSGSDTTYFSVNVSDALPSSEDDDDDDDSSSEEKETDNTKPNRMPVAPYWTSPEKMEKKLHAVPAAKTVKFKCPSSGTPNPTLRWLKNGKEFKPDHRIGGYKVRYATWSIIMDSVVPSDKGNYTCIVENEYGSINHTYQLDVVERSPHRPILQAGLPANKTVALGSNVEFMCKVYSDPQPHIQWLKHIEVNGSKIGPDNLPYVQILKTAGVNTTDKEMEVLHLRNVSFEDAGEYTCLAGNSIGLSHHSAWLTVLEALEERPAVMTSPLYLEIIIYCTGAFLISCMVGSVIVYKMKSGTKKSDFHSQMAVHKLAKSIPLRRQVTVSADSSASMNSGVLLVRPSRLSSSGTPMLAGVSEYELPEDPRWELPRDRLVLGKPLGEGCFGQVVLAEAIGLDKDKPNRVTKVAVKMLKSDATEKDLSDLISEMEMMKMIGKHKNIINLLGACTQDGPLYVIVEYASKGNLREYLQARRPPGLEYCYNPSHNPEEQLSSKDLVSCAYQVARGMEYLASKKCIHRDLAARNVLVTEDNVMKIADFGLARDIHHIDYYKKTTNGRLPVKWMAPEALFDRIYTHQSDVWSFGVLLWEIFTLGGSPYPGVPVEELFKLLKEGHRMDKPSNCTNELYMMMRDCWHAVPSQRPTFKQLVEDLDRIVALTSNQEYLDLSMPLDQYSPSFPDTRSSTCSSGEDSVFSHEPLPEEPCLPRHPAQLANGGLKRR
Chain of wild-type un-phosphorylated FGFR3 (P22607 23-806): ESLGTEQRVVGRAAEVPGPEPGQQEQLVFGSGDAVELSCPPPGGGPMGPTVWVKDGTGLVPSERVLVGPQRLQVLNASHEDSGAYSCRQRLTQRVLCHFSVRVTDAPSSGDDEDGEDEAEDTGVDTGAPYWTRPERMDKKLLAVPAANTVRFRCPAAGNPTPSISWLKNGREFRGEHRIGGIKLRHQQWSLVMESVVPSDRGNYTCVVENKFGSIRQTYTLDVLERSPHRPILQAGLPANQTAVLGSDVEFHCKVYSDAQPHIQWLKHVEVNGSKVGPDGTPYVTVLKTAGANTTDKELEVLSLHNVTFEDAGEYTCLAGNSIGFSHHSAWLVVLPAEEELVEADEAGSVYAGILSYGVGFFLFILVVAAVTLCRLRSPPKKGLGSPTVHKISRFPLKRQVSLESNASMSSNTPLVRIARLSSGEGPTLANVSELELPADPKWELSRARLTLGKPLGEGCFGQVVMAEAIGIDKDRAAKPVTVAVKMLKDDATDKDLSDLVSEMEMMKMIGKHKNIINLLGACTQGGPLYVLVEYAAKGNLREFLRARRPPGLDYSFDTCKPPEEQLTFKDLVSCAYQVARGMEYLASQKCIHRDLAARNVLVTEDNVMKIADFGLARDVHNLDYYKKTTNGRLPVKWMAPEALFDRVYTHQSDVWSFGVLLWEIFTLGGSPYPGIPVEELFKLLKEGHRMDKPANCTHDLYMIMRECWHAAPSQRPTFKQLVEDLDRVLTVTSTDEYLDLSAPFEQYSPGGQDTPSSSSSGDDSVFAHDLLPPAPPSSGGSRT
Chain of wild-type un-phosphorylated FGFR2 (P21802 22-821): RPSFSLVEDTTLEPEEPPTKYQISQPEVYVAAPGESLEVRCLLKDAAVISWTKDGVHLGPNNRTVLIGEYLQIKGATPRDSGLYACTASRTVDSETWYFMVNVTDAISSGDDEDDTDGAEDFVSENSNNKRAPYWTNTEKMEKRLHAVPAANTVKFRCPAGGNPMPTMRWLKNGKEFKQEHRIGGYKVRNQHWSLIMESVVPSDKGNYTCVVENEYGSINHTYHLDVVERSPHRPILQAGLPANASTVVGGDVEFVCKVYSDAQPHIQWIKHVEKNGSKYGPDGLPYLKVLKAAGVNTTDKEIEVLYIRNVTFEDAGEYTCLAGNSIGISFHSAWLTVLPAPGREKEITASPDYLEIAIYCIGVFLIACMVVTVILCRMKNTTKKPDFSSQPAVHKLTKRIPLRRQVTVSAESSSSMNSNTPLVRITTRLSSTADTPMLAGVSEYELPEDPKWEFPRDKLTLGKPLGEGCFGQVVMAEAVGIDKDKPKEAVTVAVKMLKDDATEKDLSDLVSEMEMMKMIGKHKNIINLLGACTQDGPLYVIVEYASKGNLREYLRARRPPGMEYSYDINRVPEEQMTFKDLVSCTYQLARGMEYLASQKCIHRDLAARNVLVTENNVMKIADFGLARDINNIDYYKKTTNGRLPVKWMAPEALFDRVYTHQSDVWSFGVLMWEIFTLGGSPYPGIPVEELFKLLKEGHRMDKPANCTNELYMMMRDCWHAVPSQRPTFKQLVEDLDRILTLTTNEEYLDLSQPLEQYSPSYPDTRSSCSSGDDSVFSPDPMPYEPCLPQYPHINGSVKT

IC50 [1] [nM]	IC50 [2] [nM]	IC50 [3] [nM]	SMILES
≥ 400	≥ 400		CNC(=O)c1cc(F)c(F)c(-c2cnc3cc(-c4cnn(C)c4)c(O[C@H]4CCN(C)C4)nn23)c1 [Example 16, (S)-3,4-Difluoro-N-methyl-5-(7-(1-methyl-1H-pyrazol-4-yl)-6-((1-methylpyrrolidin-3-yl)oxy)imidazo[1,2-b]pyridazin-3-yl)benzamide]
10 to 100	≥ 400		CNC(=O)c1cc(F)c(F)c(-c2cnc3cc(-c4cnn(C)c4)c(O[C@H]4CCNC4)nn23)c1 [Example 17, (S)-3,4-Difluoro-N-methyl-5-(7-(1-methyl-1H-pyrazol-4-yl)-6-(pyrrolidin-3-yloxy)imidazo[1,2-b]pyridazin-3-yl)benzamide]
< 10	10 to 100		CNC(=O)c1cc(F)c(F)c(-c2cnc3cc(-c4cnn(C)c4)c(O[C@H]4CCNC4=O)nn23)c1 [Example 18, (S)-3,4-Difluoro-N-methyl-5-(7-(1-methyl-1H-pyrazol-4-yl)-6-((2-oxopyrrolidin-3-yl)oxy)imidazo[1,2-b]pyridazin-3-yl)benzamide]
< 10	10 to 100	< 10	CNC(=O)c1cc(F)c(F)c(-c2cnc3cc(-c4cnn(C)c4)c(N[C@H]4CCOC4)nn23)c1 [Example 19, (S)-3,4-Difluoro-N-methyl-5-(7-(1-methyl-1H-pyrazol-4-yl)-6-((tetrahydrofuran-3-yl)amino)imidazo[1,2-b]pyridazin-3-yl)benzamide]
10 to 100	100 to 400		CNC(=O)c1cc(-c2cnc3cc(-c4cnn(C)c4)c(O[C@H]4CCOC4)nn23)c(F)c(N(C)C)c1 [Example 37, (S)-3-(Dimethylamino)-4-fluoro-N-methyl-5-(7-(1-methyl-1H-pyrazol-4-yl)-6-((tetrahydrofuran-3-yl)oxy)imidazo[1,2-b]pyridazin-3-yl)benzamide]
< 10	10 to 100		CNC(=O)c1cc(-c2cnc3cc(-c4cnn(C)c4)c(O[C@H]4CCOC4)nn23)c(F)c(C2CC2)c1 [Example 38, (S)-3-Cyclopropyl-4-fluoro-N-methyl-5-(7-(1-methyl-1H-pyrazol-4-yl)-6-((tetrahydrofuran-3-yl)oxy)imidazo[1,2-b]pyridazin-3-yl)benzamide]
100 to 400	≥ 400		Cc1cc(-c2cn(C)nn2)cc(-c2cnc3cc(-c4cnn(C)c4)c(O[C@H]4CCOC4)nn23)c1F [Example 39, (S)-3-(2-Fluoro-3-methyl-5-(1-methyl-1H-1,2,3-triazol-4-yl)phenyl)-7-(1-methyl-1H-pyrazol-4-yl)-6-((tetrahydrofuran-3-yl)oxy)imidazo[1,2-b]pyridazine]
		< 10	CNC(=O)c1cc(-c2cnc3cc(-c4cnn(C)c4)c(O[C@H]4CCOC4)nn23)c(F)c(C(F)F)c1 [Example 41, (S)-3-(Difluoromethyl)-4-fluoro-N-methyl-5-(7-(1-methyl-1H-pyrazol-4-yl)-6-((tetrahydrofuran-3-yl)oxy)imidazo[1,2-b]pyridazin-3-yl)benzamide]
		< 10	CNC(=O)c1cc(C)c(F)c(-c2cnc3cc(-c4cnn(C)c4)c(O[C@H]4CCOC4)nn23)c1 [Example 42, (S)-4-Fluoro-N,3-dimethyl-5-(7-(1-methyl-1H-pyrazol-4-yl)-6-((tetrahydrofuran-3-yl)oxy)imidazo[1,2-b]pyridazin-3-yl)benzamide]
		< 10	CNC(=O)c1cc(F)c(F)c(-c2cnc3cc(-c4cnn(C)c4)c(O[C@H]4CCOC4)nn23)c1 [Example 43, (S)-3,4-Difluoro-N-methyl-5-(7-(1-methyl-1H-pyrazol-4-yl)-6-((tetrahydrofuran-3-yl)oxy)imidazo[1,2-b]pyridazin-3-yl)benzamide]
10 to 100	≥ 400		CNC(=O)c1cncc(-c2cnc3cc(-c4cnn(C)c4)c(OCC(F)F)nn23)c1 [Example 50, 5-(6-(2,2-Difluoroethoxy)-7-(1-methyl-1H-pyrazol-4-yl)imidazo[1,2-b]pyridazin-3-yl)-N-methylnicotinamide]
10 to 100	10 to 100		Cn1cc(-c2cc3ncc(-c4cccc(-n5cccn5)c4)n3nc2OC2COC2)cn1 [Example 61, 3-(3-(1H-Pyrazol-1-yl)phenyl)-7-(1-methyl-1H-pyrazol-4-yl)-6-(oxetan-3-yloxy)imidazo[1,2-b]pyridazine]
		< 10	CNC(=O)c1cccc(-c2cnc3cc(-c4cnn(C)c4)c(O[C@H]4CCOC4)nn23)c1 [Example 63, (S)-N-Methyl-3-(7-(1-methyl-1H-pyrazol-4-yl)-6-((tetrahydrofuran-3-yl)oxy)imidazo[1,2-b]pyridazin-3-yl)benzamide]
100 to 400	≥ 400		Cn1cc(-c2cc3ncc(-c4ccc5cnn(C)c5c4)n3nc2OC2CCOC2)cn1 (stereo not drawn) [Example 65, 3-(1-Methyl-1H-indazol-6-yl)-7-(1-methyl-1H-pyrazol-4-yl)-6-((tetrahydrofuran-3-yl)oxy)imidazo[1,2-b]pyridazine]
10 to 100	100 to 400		Cn1cc(-c2cc3ncc(-c4ccc5oncc5c4)n3nc2OC2CCOC2)cn1 (stereo not drawn) [Example 66, 5-(7-(1-Methyl-1H-pyrazol-4-yl)-6-((tetrahydrofuran-3-yl)oxy)imidazo[1,2-b]pyridazin-3-yl)benzo[d]isoxazole]

The next lines start with the compound.

SMILES	IC50 [1] [nM]	IC50 [2] [nM]	IC50 [3] [nM]
COc1nn2c(-c3cncc(C)c3)cnc2cc1-c1cnn(C)c1 [Example 3, 6-Methoxy-7-(1-methyl-1H-pyrazol-4-yl)-3-(5-methylpyridin-3-yl)imidazo[1,2-b]pyridazine]	100 to 400	≥ 400	
CNC(=O)c1cncc(-c2cnc3cc(-c4cnn(C)c4)c(OC)nn23)c1 [Example 4, 5-(6-Methoxy-7-(1-methyl-1H-pyrazol-4-yl)imidazo[1,2-b]pyridazin-3-yl)-N-methylnicotinamide]			100 to 400
COc1nn2c(-c3ccc4ncccc4c3)cnc2cc1-c1cnn(C)c1 [Example 5, 6-(6-Methoxy-7-(1-methyl-1H-pyrazol-4-yl)imidazo[1,2-b]pyridazin-3-yl)quinoline]	100 to 400	100 to 400	
COc1nn2c(-c3cccc(N4CCOCC4)c3)cnc2cc1-c1cnn(C)c1 [Example 6, 4-(3-(6-Methoxy-7-(1-methyl-1H-pyrazol-4-yl)imidazo[1,2-b]pyridazin-3-yl)phenyl)morpholine]	100 to 400	100 to 400	
COc1nn2c(-c3cccc(CC#N)c3)cnc2cc1-c1cnn(C)c1 [Example 7, 2-(3-(6-Methoxy-7-(1-methyl-1H-pyrazol-4-yl)imidazo[1,2-b]pyridazin-3-yl)phenyl)acetonitrile]	10 to 100	10 to 100	
CNS(=O)(=O)c1cccc(-c2cnc3cc(-c4cnn(C)c4)c(OC)nn23)c1 [Example 8, 3-(6-Methoxy-7-(1-methyl-1H-pyrazol-4-yl)imidazo[1,2-b]pyridazin-3-yl)-N-methylbenzenesulfonamide]	< 10	< 10	
COc1nn2c(-c3cccc(C(C)(C)O)c3)cnc2cc1-c1cnn(C)c1 [Example 9, 2-(3-(6-Methoxy-7-(1-methyl-1H-pyrazol-4-yl)imidazo[1,2-b]pyridazin-3-yl)phenyl)propan-2-ol]	10 to 100	10 to 100	
COc1nn2c(-c3cccc(NC(C)=O)c3)cnc2cc1-c1cnn(C)c1 [Example 10, N-(3-(6-Methoxy-7-(1-methyl-1H-pyrazol-4-yl)imidazo[1,2-b]pyridazin-3-yl)phenyl)acetamide]	< 10	< 10	
CNC(=O)c1cc(-c2ccc(F)cc2F)cc(-c2cnc3cc(-c4cnn(C)c4)c(OC)nn23)c1 [Example 11, 2′,4′-Difluoro-5-(6-methoxy-7-(1-methyl-1H-pyrazol-4-yl)imidazo[1,2-b]pyridazin-3-yl)-N-methyl-[1,1′-biphenyl]-3-carboxamide]	< 10	10 to 100	
CNC(=O)c1ccc(OC)c(-c2cnc3cc(-c4cnn(C)c4)c(OC)nn23)c1 [Example 12, 4-Methoxy-3-(6-methoxy-7-(1-methyl-1H-pyrazol-4-yl)imidazo[1,2-b]pyridazin-3-yl)-N-methylbenzamide]	≥ 400	≥ 400	
CNC(=O)c1ccc(C#N)c(-c2cnc3cc(-c4cnn(C)c4)c(OC)nn23)c1 [Example 13, 4-Cyano-3-(6-methoxy-7-(1-methyl-1H-pyrazol-4-yl)imidazo[1,2-b]pyridazin-3-yl)-N-methylbenzamide]	≥ 400	≥ 400	
COc1nn2c(-c3cc(C(=O)NCC(F)(F)F)ccc3F)cnc2cc1-c1cnn(C)c1 [Example 14, 4-Fluoro-3-(6-methoxy-7-(1-methyl-1H-pyrazol-4-yl)imidazo[1,2-b]pyridazin-3-yl)-N-(2,2,2-trifluoroethyl)benzamide]	10 to 100	10 to 100	
CNC(=O)c1cncc(-c2cnc3cc(-c4cnn(C)c4)c(OC4COC4)nn23)c1 [Example 15, N-Methyl-5-(7-(1-methyl-1H-pyrazol-4-yl)-6-(oxetan-3-yloxy)imidazo[1,2-b]pyridazin-3-yl)nicotinamide]	< 10	10 to 100	
CNC(=O)c1cccc(-c2cnc3cc(-c4cnn(C)c4)c(OC4CC(C#N)C4)nn23)c1 (stereo not drawn) [Example 56, 3-(6-(3-Cyanocyclobutoxy)-7-(1-methyl-1H-pyrazol-4-yl)imidazo[1,2-b]pyridazin-3-yl)-N-methylbenzamide]	100 to 400	100 to 400	
